The values that follow come from PubChem BioAssay (NCI).

Several values for one entry are separate records, joined by “and”; a condition that tells them apart may be missing. Equal entries are not always repeated.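 Where inhibition never reached the appropriate level, the endpoint shown equals the highest concentration tested. Otherwise, values were interpolated linearly from a five-concentration, 48-hour dose response in 96-well plates. TGI denotes the concentration required for complete inhibition of growth.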

Some test systems named below: M19-MEL melanoma; DLD-1 colon; DMS 273 small cell lung; XF 498 CNS; DMS 114 small cell lung; MDA-N; SNB-78 CNS; HOP-18 NSCLC; RXF-631 renal.
Holding throughout (assay): NCI-60 cell line screen, 48 h

Take `COC(=O)CC1NC(=O)C1C1(C)OCCO1` (stereo not drawn): the TGI in the experiment on M19-MEL melanoma, in the experiment with DLD-1 colon, in the experiment on DMS 273 small cell lung, in the experiment on XF 498 CNS and in the experiment on DMS 114 small cell lung was above 100 µM in each case.

The compound `CC1(C)CCC[C@]2(C)[C@@H](C=O)C(C=O)=CC[C@@H]12` showed a TGI in the experiment with MDA-N of 26.4 µM.

For `COC12c3ccccc3-c3ccccc3C1[C@H]1C(=O)OC(=O)[C@H]12` (stereo partly drawn), the TGI with MDA-N is above 10 µM.

Consider `C/C1=C\[C@@H](O)C(=O)/C=C/C=C\c2csc(n2)[C@@H](C)NC(=O)C[C@@]2(CC1)S(=O)SC(=O)[C@]2(C)O` (stereo partly drawn), for which the TGI is 0.0589 µM in the experiment with SNB-78 CNS; 0.178 µM with HOP-18 NSCLC; 0.213 µM and 0.0233 µM with DLD-1 colon; 0.106 µM in the experiment on DMS 273 small cell lung; 0.169 µM and 0.022 µM in the experiment on DMS 114 small cell lung.

On to `C/C=C(\C)c1cc(O)c(C)c2c1Oc1cc(O)c(Cl)c(C)c1C(=O)O2`, for which the TGI was determined as 81.8 µM with M19-MEL melanoma; 82.6 µM with SNB-78 CNS; 33.9 µM in the experiment on DLD-1 colon; 67.9 µM in the experiment with DMS 273 small cell lung; 74.9 µM in the experiment with DMS 114 small cell lung.

As for `COc1cc(-c2cc(-c3cc([N+](=O)[O-])c(/C=N/NC(=O)c4ccncc4)o3)ccc2OC)ccc1C`, the TGI in the experiment with M19-MEL melanoma, in the experiment on RXF-631 renal, in the experiment on DLD-1 colon and in the experiment on XF 498 CNS was above 100 µM each time.

For `CCCCCCN(N)C(=O)CC#N`, the TGI with M19-MEL melanoma, in the experiment on SNB-78 CNS, in the experiment with RXF-631 renal, in the experiment with HOP-18 NSCLC, with DLD-1 colon and with DMS 273 small cell lung was above 100 µM in each case. In the experiment with DMS 114 small cell lung, this compound had a TGI above 100 µM.

Turning to `Fc1cccc(C2SCc3nc4ccccc4n32)c1F` (stereo not drawn), the TGI is above 100 µM in the experiment with M19-MEL melanoma; above 100 µM with SNB-78 CNS; 36 µM in the experiment with RXF-631 renal; above 100 µM in the experiment with HOP-18 NSCLC; above 100 µM in the experiment on DLD-1 colon; 50.5 µM in the experiment on DMS 273 small cell lung. In addition, the TGI in the experiment with DMS 114 small cell lung was above 100 µM.

Consider `COCCOCOc1ccc(OCOCCOC)c2c1C(=O)c1ccccc1C2=O`, for which the TGI with M19-MEL melanoma is 39 µM; in the experiment with SNB-78 CNS it was above 100 µM; with HOP-18 NSCLC it was above 100 µM; with DLD-1 colon, above 100 µM; with DMS 273 small cell lung, above 100 µM; in the experiment on XF 498 CNS, above 100 µM. This compound also yielded a TGI in the experiment with DMS 114 small cell lung of 37.3 µM.

As for `Cc1ccc(S(=O)OC2C3CC4CC(C3)CC2C4)cc1` (stereo not drawn), the TGI in the experiment with M19-MEL melanoma, in the experiment with SNB-78 CNS, with HOP-18 NSCLC, in the experiment on DLD-1 colon, in the experiment on DMS 273 small cell lung and in the experiment on XF 498 CNS was above 100 µM throughout. Moreover, the TGI in the experiment on DMS 114 small cell lung is above 100 µM.

In the experiment with MDA-N, `Cc1ccc(C2=Nc3ccccc3SC(c3cccc([N+](=O)[O-])c3)C2)cc1` (stereo not drawn) gave a TGI above 100 µM.

On to `O=P1(Oc2ccccc2)C(c2ccccc2)C(c2ccccc2)=NN1c1ccccc1` (stereo not drawn), for which the TGI is 54.9 µM in the experiment on M19-MEL melanoma; above 100 µM in the experiment with SNB-78 CNS; above 100 µM with RXF-631 renal; above 100 µM in the experiment with HOP-18 NSCLC; 34.3 µM in the experiment with DLD-1 colon; 89.3 µM in the experiment on DMS 273 small cell lung. In addition, the TGI with XF 498 CNS was above 100 µM; with DMS 114 small cell lung, 43.8 µM.

In the case of `O=C(O)/C(Cl)=C(\Cl)C(=O)Nc1ccc(Cl)c(Cl)c1Cl`, the TGI in the experiment on M19-MEL melanoma came out at 30.8 µM; in the experiment on SNB-78 CNS, 84.7 µM; in the experiment on HOP-18 NSCLC it was 31 µM; in the experiment with DLD-1 colon, 47.3 µM; in the experiment on DMS 273 small cell lung, 36.2 µM; in the experiment with DMS 114 small cell lung, 35.1 µM.

The compound `Cc1ccc(NC(=O)c2ccccc2C(=O)O)cc1C` returned a TGI in the experiment with MDA-N above 100 µM.

As for `Cc1cc(N(CCC#N)CCC#N)ccc1/C=C1N=C(/C=C\c2ccccc2)N(c2ccc(Cl)cc2)C\1=O`, the TGI with M19-MEL melanoma is above 82.7 µM; in the experiment with SNB-78 CNS, above 100 µM; in the experiment on MDA-N it was above 100 µM; in the experiment on HOP-18 NSCLC it was above 100 µM; in the experiment with DLD-1 colon, above 100 µM; in the experiment with DMS 273 small cell lung, above 100 µM. Further, the TGI with XF 498 CNS and in the experiment with DMS 114 small cell lung was above 100 µM each time.

Take `Cn1c2ccccc2n2c(=O)c3c(c(C#N)c12)CCCC3`: the TGI in the experiment with M19-MEL melanoma, in the experiment on SNB-78 CNS, in the experiment on DLD-1 colon, in the experiment with DMS 273 small cell lung, with XF 498 CNS and with DMS 114 small cell lung was above 100 µM throughout.

On to `CN(C)c1ccc(/C=C2\C=Cc3ccccc32)cc1`, for which the TGI with M19-MEL melanoma is above 100 µM; in the experiment with HOP-18 NSCLC, above 100 µM; in the experiment with DLD-1 colon, above 100 µM; in the experiment with DMS 273 small cell lung it was above 100 µM; in the experiment with DMS 114 small cell lung, 89.6 µM.

On to `Cc1cc2c(c(C(=O)O)c1C)-c1cccc(F)c1C2=O`, for which the TGI in the experiment on M19-MEL melanoma, with SNB-78 CNS, in the experiment on RXF-631 renal, in the experiment on DLD-1 colon, with DMS 273 small cell lung and in the experiment on XF 498 CNS was above 100 µM each time. In addition, the TGI in the experiment with DMS 114 small cell lung is above 100 µM.

As to `CNS(=O)(=O)NNS(=O)(=O)c1ccc(Cl)cc1`, the TGI with M19-MEL melanoma, in the experiment with RXF-631 renal, in the experiment with DLD-1 colon and with DMS 114 small cell lung was above 100 µM each time.

In the case of `CC1(C)OCC(C(O)C2OC(C)(C)OC2/C=N\O)O1` (stereo not drawn), the TGI in the experiment on M19-MEL melanoma, with SNB-78 CNS, with HOP-18 NSCLC, in the experiment on DLD-1 colon, with DMS 273 small cell lung and in the experiment with XF 498 CNS was above 100 µM throughout. In the experiment on DMS 114 small cell lung, this compound yielded a TGI above 100 µM.

As to `CC1CN1c1c(C(=O)/C=C/c2ccccc2)c(-c2ccccc2)nn(C)c1=O` (stereo not drawn), the TGI in the experiment with M19-MEL melanoma came out at 35.1 µM; in the experiment on SNB-78 CNS, 33.7 µM; in the experiment on HOP-18 NSCLC, 71.5 µM; in the experiment with DLD-1 colon, 34.5 µM; with DMS 273 small cell lung, 30.3 µM; in the experiment with DMS 114 small cell lung, 43.8 µM.
